Experimental data as given in patent publication US20090312521A1 (priority 2004, published 2009).
Converted amounts (≈) assume the structure as drawn. “Also recorded” adds a separate entry of the source. Non-standard residues stand in square brackets, D forms with d. Residues, ends and D or L forms follow the SMILES beside them. βAla = NCCC(=O)O; Sar = CNCC(=O)O

Key:
[1] = system: Salmonella typhimurium Re; settings: Gram −, NB, 37 ° C.
[2] = system: Salmonella typhimurium Rb; settings: murium Rb
[3] = system: Yersinia pseudotuberculosis; type: cell-based; settings: Gram −, BHI, 35 ° C.
[4] = system: Salmonella typhimurium Rc; settings: Gram −, NB, 37 ° C.
Bacillus globigii = assay: Additional antimicrobial test (MIC); type: cell-based; settings: Gram +, 37 ° C.
[5] = system: Salmonella typhimurium Rd1; settings: Salmonella typhimurium Rd1, Gram −, NB, 37 ° C.
Salmonella typhimurium = settings: murium
Pseudomonas auruginosa = assay: Additional antimicrobial test (MIC); type: cell-based
[6] = system: Methicillinresistant Staphylococcus aureus (MRSA); assay: Additional antimicrobial test (MIC); type: cell-based; settings: Gram +, NB, 37 ° C.
Bacillus thuringiensis = assay: Additional antimicrobial test (MIC); type: cell-based; settings: Gram +, BHI, 37 ° C.
Vibrio cholerae = assay: Additional antimicrobial test (MIC); type: cell-based; settings: Gram −, BHI, 37 ° C.
E. coli ATCC 11775 = type: cell-based; settings: ATCC 11775, 24 h
Procedure: Lyophilized peptides were dissolved in NB to give a concentration of 400 μM and filtered using 0.22 μm filter discs (Millex GV, Durapore). An overnight culture in NB was adjusted to 5×10^6 CFU/mL and inoculated into the micro titer plate wells (10 μL) containing each 100 μL of a serial 2-fold dilution (200-0.4 μM) of the tested peptide in NB. Plates were incubated while gently shaking at 37 ° C. for 24 h. Next, 80 μL suspension of each well was transported into a flat-bottom 96-well plate (Costar). The absorbance was measured at 600 nm using a μQuant micro plate spectrophotometer (Bio-Tek Instruments). All peptides were measured in quadruplo. The peptide with sequence […] (see Otvos Jr, […]; Otvos, B. I.; Hoffmann, […].; Wade, […].; Bulet, P. Protein Sci. 2000, 9, 742) was used as negative control.

Bacillus anthracis = type: cell-based; settings: Gram +, BHI, 37 ° C.
Yersinia pestis KIM5 = type: cell-based; settings: Yersinia pestis KIM5, Gram −, BHI, 22 ° C.
Gram-negative bacteria = settings: glycosylated form; cited from earlier work
[7] = cited from earlier work
[8] = aminopeptidase and carboxypeptidase cleavage; cited from earlier work
[9] = system: aminopeptidase and carboxypeptidase; assay: mammalian serum; settings: up to four hour; cited from earlier work
mammalian serum = settings: up to four hour period; cited from earlier work

Row | Molecule | MIC [1] [µM] | MIC [2] [µM] | MIC [3] | MIC [4] [µM] | MIC (Klebsiella pneumoniae) [µM] | MIC (Salmonella panama) [µM] | MIC (Bacillus globigii) | MIC [5] [µM] | MIC (Salmonella typhimurium) [µM] | MIC (Pseudomonas auruginosa) | MIC (Salmonella give) [µM] | MIC [6] | MIC (Shigella sonnei) [µM] | MIC (Bacillus thuringiensis) | MIC (Vibrio cholerae) | MIC (Salmonella enteritidis) [µM] | MIC (Salmonella montevideo) [µM] | MIC (E. coli ATCC 11775) [µM] | MIC (Salmonella infantis) [µM] | MIC (E. coli O157: H7) [µM] | further results
1 | CC[C@H](C)[C@H](NC(=O)[C@@H]1CCCN1C(=O)[C@H](CCCNC(=N)N)NC(=O)[C@@H]1CCCN1C(=O)[C@H](Cc1c[nH]cn1)NC(=O)[C@H](CO)NC(=O)[C@@H](NC(=O)[C@@H]1CCCN1C(=O)[C@H](CCCNC(=N)N)NC(=O)[C@@H]1CCCN1C(=O)[C@@H](NC(=O)[C@H](Cc1ccc(O)cc1)NC(=O)[C@@H]1CCCN1C(=O)[C@H](CCCNC(=N)N)NC(=O)[C@@H]1CCCN1C(=O)[C@H](CCCCN)NC(=O)CCN)[C@@H](C)O)[C@@H](C)O)C(=O)N[C@@H](CCCNC(=N)N)C(=O)N[C@H](C(=O)O)C(C)C [Peptide 14, βAlaKPRP YTPRP TSHPR PIRV] (H-[βAla]KPRPYTPRPTSHPRPIRV-OH; N-terminus assumed) | 3.38 (≈ 7.53 µg/mL) | 12.5 (≈ 27.8 µg/mL) | NI at ≦100 μM | 100 (≈ 223 µg/mL) | 100 (≈ 223 µg/mL) | 25 (≈ 55.7 µg/mL) | NI at ≦100 μM | 12.5 (≈ 27.8 µg/mL) | 50 (≈ 111 µg/mL) | NI at ≦100 μM | 100 (≈ 223 µg/mL) | NI at ≦100 μM | 100 (≈ 223 µg/mL) | NI at ≦100 μM | NI at ≦100 μM | 12.5 (≈ 27.8 µg/mL) | 12.5 (≈ 27.8 µg/mL) | 3.1 (≈ 6.9 µg/mL) | 25 (≈ 55.7 µg/mL) | 25 (≈ 55.7 µg/mL) | MIC (Bacillus anthracis): NI at ≦100 μM; MIC (Yersinia pestis KIM5): NI at ≦100 μM
2 | CC[C@H](C)[C@H](NC(=O)[C@@H]1CCCN1C(=O)[C@H](CCCNC(=N)N)NC(=O)[C@@H]1CCCN1C(=O)[C@H](Cc1cnc[nH]1)NC(=O)[C@H](CO)NC(=O)[C@@H](NC(=O)[C@@H]1CCCN1C(=O)[C@H](CCCNC(=N)N)NC(=O)[C@@H]1CCCN1C(=O)[C@H](CO)NC(=O)[C@H](Cc1ccc(O)cc1)NC(=O)[C@@H]1CCCN1C(=O)[C@H](CCCNC(=N)N)NC(=O)[C@@H]1CCCN1C(=O)[C@H](CCCCN)NC(=O)CN)[C@@H](C)O)C(=O)N[C@@H](CCCNC(=N)N)C(=O)N[C@H](C(=O)O)C(C)C [Drosocin] (H-GKPRPYSPRPTSHPRPIRV-OH) |  | 50 (≈ 110 µg/mL) |  |  | 100 (≈ 220 µg/mL) | 25 (≈ 55 µg/mL) |  |  | 25 (≈ 55 µg/mL) |  | 25 (≈ 55 µg/mL) |  | 100 (≈ 220 µg/mL) |  |  | 50 (≈ 110 µg/mL) | 50 (≈ 110 µg/mL) |  | 50 (≈ 110 µg/mL) | 25 (≈ 55 µg/mL) | MIC (Erwinia herbicola): 12.5 µM (≈ 27.5 µg/mL); MIC (Erwinia chrysanthemi): 100 µM (≈ 220 µg/mL); MIC (Enterobacter aerogenes): 100 µM (≈ 220 µg/mL)
3 | Gly-Lys-Pro-Arg-Pro-Tyr-Ser*-Pro-Arg-Pro-Thr-Ser-His-Pro-Arg-Pro-Ile-Arg-Val [native, glycosylated peptide] |  |  |  |  |  |  |  |  |  |  |  |  |  |  |  |  |  |  |  |  | activity against Gram-negative bacteria (Gram-negative bacteria): moderately active; time needed to kill bacteria in vivo (Gram-negative bacteria): 24 h; antibacterial activity when injected into mice [7]: no antibacterial activity; degradation in mammalian serum [8]: completely degraded within a four hour period
4 | CC[C@H](C)[C@H](NC(=O)[C@@H]1CCCN1C(=O)[C@H](CCCNC(=N)N)NC(=O)[C@@H]1CCCN1C(=O)[C@H](Cc1c[nH]cn1)NC(=O)[C@H](CO)NC(=O)[C@@H](NC(=O)[C@@H]1CCCN1C(=O)[C@H](CCCNC(=N)N)NC(=O)[C@@H]1CCCN1C(=O)[C@@H](NC(=O)[C@H](Cc1ccc(O)cc1)NC(=O)[C@@H]1CCCN1C(=O)[C@H](CCCNC(=N)N)NC(=O)[C@@H]1CCCN1C(=O)[C@H](CCCCN)NC(=O)CN)[C@@H](C)O)[C@@H](C)O)C(=O)N[C@@H](CCCNC(=N)N)C(=O)N[C@H](C(=O)O)C(C)C [Peptide 4, GKPRP YTPRP TSHPR PIRV] (H-GKPRPYTPRPTSHPRPIRV-OH; N-terminus assumed) | 3.38 (≈ 7.48 µg/mL) | 12.5 (≈ 27.7 µg/mL) | NI at ≦100 μM | 100 (≈ 221 µg/mL) | 100 (≈ 221 µg/mL) | 12.5 (≈ 27.7 µg/mL) | NI at ≦100 μM | 12.5 (≈ 27.7 µg/mL) | 12.5 (≈ 27.7 µg/mL) | NI at ≦100 μM | 25 (≈ 55.3 µg/mL) | NI at ≦100 μM | 100 (≈ 221 µg/mL) | NI at ≦100 μM | NI at ≦100 μM | 12.5 (≈ 27.7 µg/mL) | 12.5 (≈ 27.7 µg/mL) | 1.6 (≈ 3.54 µg/mL) | 25 (≈ 55.3 µg/mL) | 12.5 (≈ 27.7 µg/mL) | MIC (Bacillus anthracis): NI at ≦100 μM; MIC (Yersinia pestis KIM5): NI at ≦100 μM
5 | Gly-Lys-Pro-Arg-Pro-Tyr-Ser*-Pro-Arg-Pro-Thr-Ser-His-Pro-Arg-Pro-Ile-Arg-Val |  |  |  |  |  |  |  |  |  |  |  |  |  |  |  |  |  |  |  |  | fragment found [9]: metabolites lacking five amino terminal residues; also recorded: metabolites lacking two carboxy terminal residues; fragment found (mammalian serum): metabolite lacking five amino terminal residues; also recorded: metabolite lacking two carboxy terminal residues
6 | CC[C@H](C)[C@H](NC(=O)[C@@H]1CCCN1C(=O)[C@H](CCCNC(=N)N)NC(=O)[C@@H]1CCCN1C(=O)[C@H](Cc1c[nH]cn1)NC(=O)[C@H](CO)NC(=O)[C@@H](NC(=O)[C@@H]1CCCN1C(=O)[C@H](CCCNC(=N)N)NC(=O)[C@@H]1CCCN1C(=O)[C@@H](NC(=O)[C@H](Cc1ccc(O)cc1)NC(=O)[C@@H]1CCCN1C(=O)[C@H](CCCNC(=N)N)NC(=O)[C@@H]1CCCN1C(=O)[C@H](CCCCN)NC(=O)CNC)[C@@H](C)O)[C@@H](C)O)C(=O)N[C@@H](CCCNC(=N)N)C(=O)N[C@H](C(=O)O)C(C)C [Peptide 15, SarKPRP YTPRP TSHPR PIRV] (H-[Sar]KPRPYTPRPTSHPRPIRV-OH; N-terminus assumed) |  |  |  |  |  |  |  |  |  |  |  |  |  |  |  |  |  | 6.3 (≈ 14 µg/mL) |  |  | 
